# From patent US8048915B2, “Biologically active complex” (BioMas Ltd., priority 2001, dated 2011)
# “And” between values parts separate entries of the source, which are not always exact repeats. Identical values can stand only once. Like-named read-outs stand apart in the source and are kept apart here.
# Tests used:
# [1] = test system: V-mos transformed NIH-3T3 cells; assay: Colony growth of V-mos transformed NIH-3T3 cells; format: cell-based; settings: one week; clones counted
# Description: 5×10^2 cells were plated per 60 mm dish and incubated with different concentrations (0.005-5 μg/ml) of the complex in PBS. A week later, the cells were stained with Gimsa and clones were counted. Similar experiments were conducted using V-mos transformed NIH-3T3 cells, and also using Ph2TeCl2 and Ph3TeCl, with both types of transformed cells.
# West Nile virus (WNV) [2] = test system: West Nile virus (WNV)
# Source text: WNV is a toga virus of the flavivirus group, a positive single stranded RNA virus, which when injected IP to mice usually kills them within 5-8 days as a result of extensive damage to the central nervous system.
# IL-2 = settings: 10^7 viable cells/ml
# Description: (§1) Spleens were removed from 15, male Balb-c mice 6 to 8 weeks of age. The spleen cells were pushed through stainless steel 60 mesh (U.S. Standard) nets resting in 5 mm Petri dishes containing PBS in order to separate the cells. The cells were then collected into centrifuge tubes and spun at 1000 rpm for 10 minutes. The supernatant was discarded and cells were treated with 5 ml of hypotonic buffer (0.15M NH4Cl; 0.01M KHCO3 dissolved in double distilled water, pH 7.2) for exactly two minutes. Thereafter, PBS was added to the cells and the test tubes were centrifuged for 10 minutes at 1000 rpm. The cells were rinsed twice and counted in a hemocytometer using trypan blue to test for viability. The cells were brought to a concentration of 10^7viable cells/ml.
# [3] = test system: colony stimulating factor (CSF)
# Description: as §1
# human mononuclear cells = assay: Proliferation of human mononuclear cells (Example 14); format: cell-based; settings: 72 hours + 24 hours label, listed as Ex. 1
# Description: Human mononuclear cells were obtained by layering heparinized blood over a Ficoll/Hypaque gradient. The mononuclear cells were resuspended in enriched RPMI, rinsed three times and brought to a concentrations of 5×10^5cells/ml enriched RPMI. Varying concentrations of the complexes of Ex. 1 and Ex. 7(a), ranging from 0.005 μg to 5 μg/cell mixture were added to the cells. Aliquots of 0.2 ml of each sample were placed in wells of microplates (triplicates).
# West Nile virus (WNV) [4] = test system: West Nile virus (WNV); remark: listed apart in the source
# Description: All cultures were then infected with 10^4 PFU/plate. After 72 h incubation the supernatants were collected and the virus was titrated against Vera cells.
# [5] = test system: IL-2 receptors of human mononuclear cells; assay: Induction of IL-2 receptors of human mononuclear cells (proliferation with recombinant IL-2, 3H thymidine uptake); format: cell-based
# Description: Human MNC were brought to a concentration of 10^6 cells/ml. RPMI+10% FCS. Aliquots of 0.2 ml. were placed in duplicate wells of microdishes and plates were incubated at 37° C. for 24 hrs. […] Plates were further incubated for 48 hrs and labeled with ^3H thymidine 24 hrs before harvesting. The proliferation was measured by ^3HT uptake as described by Gillis et al, J. Immunol. […] The results are expressed in counts per minute.
# [6] = 5 pg (as starting material of Preparation 1)
# [7] = 50 pg (as starting material of Preparation 1)
# [8] = 500 pg (as starting material of Preparation 1)
# [9] = 5 ng (as starting material of Preparation 1)
# [10] = 50 ng (as starting material of Preparation 1)
# [11] = 500 ng (as starting material of Preparation 1)
# [12] = 5 μg (as starting material of Preparation 1)
# [13] = 50 μg (as starting material of Preparation 1)
compound,measurement,setting,value
"Cl[Te]1(Cl)(Cl)OCCO1.N [Example 1, equimolar complex of TeO2 and ethylene glycol, NH4Cl salt]",inhibition of growth,[1],"none of the complex, Ph2TeCl2 or Ph3TeCl inhibited the growth"
same,susceptibility of West Nile virus infections in mice,"West Nile virus (WNV) [2]; mouse, in vivo",susceptible
same,# Alive/Total,"West Nile virus (WNV) [2]; mouse, in vivo, ip",3/5
same,fate of the three survivors after day 8,"West Nile virus (WNV) [2]; second experiment, 10^3 IPLD50 virus + complex","Two out of the remaining three survived an additional 8 days, whereas the third remained alive without any manifestations of clinical symptoms"
same,IL-2,IL-2; [6],"12,000 cpm"
same,IL-2,IL-2; [7],"38,000 cpm"
same,IL-2,IL-2; [8],"30,000 cpm"
same,IL-2,IL-2; [9],"15,000 cpm"
same,IL-2,IL-2; [10],"6,000 cpm"
same,IL-2,IL-2; [11],"5,000 cpm"
same,IL-2,IL-2; [12],"5,000 cpm"
same,IL-2,IL-2; [13],"5,000 cpm"
same,CSF,[3]; [6],140 colonies/dish
same,CSF,[3]; [7],260 colonies/dish
same,CSF,[3]; [8],175 colonies/dish
same,CSF,[3]; [9],120 colonies/dish
same,CSF,[3]; [10],75 colonies/dish
same,CSF,[3]; [11],25 colonies/dish
same,CSF,[3]; [12],5 colonies/dish
same,CSF,[3]; [13],2 colonies/dish
same,proliferation of human mononuclear cells (3H methyl-thymidine),human mononuclear cells; 5 μg/ml,5008 and 5182
same,proliferation of human mononuclear cells (3H methyl-thymidine),human mononuclear cells; 1 × 10^−5 μg/ml,3218 and 2442
same,reduction in virus yield,West Nile virus (WNV) [4],ten
same,reduction of virus yield,West Nile virus (WNV) [4],40 fold
same,"proliferation, 3HT uptake","[5]; Test A, 1 μg/ml, listed as Ex. 1",28625 counts per minute and 27593 counts per minute
same,"proliferation, 3HT uptake","[5]; Test A, 1 × 10^−3 μg/ml, listed as Ex. 1",3652 counts per minute and 5055 counts per minute
same,"proliferation, 3HT uptake","[5]; Test A, 1 × 10^−4 μg/ml, listed as Ex. 1",3558 counts per minute and 4047 counts per minute
same,"proliferation, 3HT uptake","[5]; Test A, 1 × 10^−5 μg/ml, listed as Ex. 1",2474 counts per minute and 4063 counts per minute
same,"proliferation, 3HT uptake","[5]; Test A, 5 × 10^−1 μg/ml, listed as Ex. 1",120755 counts per minute and 105943 counts per minute
same,"proliferation, 3HT uptake","[5]; Test A, 7 × 10^−1 μg/ml, listed as Ex. 1",164538 counts per minute and 115195 counts per minute
same,"proliferation, 3HT uptake","[5]; Test B, 1 μg/ml",23488 counts per minute
same,"proliferation, 3HT uptake","[5]; Test B, 1 × 10^−2 μg/ml",6057 counts per minute
same,"proliferation, 3HT uptake","[5]; Test B, 1 × 10^−3 μg/ml",5865 counts per minute
same,"proliferation, 3HT uptake","[5]; Test B, 1 × 10^−4 μg/ml",4960 counts per minute
same,"proliferation, 3HT uptake","[5]; Test B, 1 × 10^−5 μg/ml",7155 counts per minute
same,"proliferation, 3HT uptake","[5]; Test B, 5 × 10^−1 μg/ml",66910 counts per minute
same,"proliferation, 3HT uptake","[5]; Test B, 5 × 10^−2 μg/ml",5390 counts per minute
same,"proliferation, 3HT uptake","[5]; Test B, 7 × 10^−1 μg/ml",17620 counts per minute
